The values below come from ChEMBL document CHEMBL1150990, “Studies of the inactivation of general acyl-coa dehydrogenase by (1R)- and (1S)-(methylenecyclopropyl)acetyl-coa” (Bioorg Med Chem Lett, 1992).

Assay [1] can be described thus: Partition ratio of the inactivation of general acyl-CoA dehydrogenase by the compound was determined.
Assay [2] is described as follows: Inactivation of general acyl-CoA dehydrogenase by the compound was determined and expressed as kinact.

As for `C=C1C[C@H]1CC(=O)SCCNC(=O)CCNC(=O)[C@H](O)C(C)(C)COP(=O)(O)OP(=O)(O)OC[C@H]1O[C@@H](n2cnc3c(N)ncnc32)[C@H](O)[C@@H]1OP(=O)(O)O`, the Ratio in assay [1] is 4. The compound further yielded a K inact in assay [2] of 0.0163 s⁻¹.

For the compound `C=C1C[C@@H]1CC(=O)SCCNC(=O)CCNC(=O)[C@H](O)C(C)(C)COP(=O)(O)OP(=O)(O)OC[C@H]1O[C@@H](n2cnc3c(N)ncnc32)[C@H](O)[C@@H]1OP(=O)(O)O`, in assay [1], the Ratio was determined as 3.4. Further, the K inact in assay [2] was determined as 0.0173 s⁻¹.
